The results in this text go back to patent US7531539B2, “Pyrrolotriazine kinase inhibitors” (Bristol-Myers Squibb Company, priority 2006, dated 2009).

Experiment [1] deals with Casein Kinase 2 A2 kinase (Homo sapiens, UniProt P19784). The experiment can be described thus: CK2A2 kinase assay (33P, TCA precipitation). The experiment is classed as biochemical. The protocol: (§1) Incubation mixtures employed for the Casein Kinase 2 A2 kinase assay contain Casein Kinase 2 A2 kinase, a synthetic peptide substrate, ATP, ATP-γ^33P and a Hepes buffer containing Mg^++, NaCl, DTT, and Brij-35. Reactions were incubated for 60 minutes at 30° C. and stopped by the addition of trichloroacetic acid (TCA) to a final concentration 8%. TCA precipitates were collected onto GF/C unifilter plates using a Filtermate universal harvester and the filters are quantitated using a TopCount 96/384-well liquid scintillation counter. Dose response curves were generated to determine the concentration required to inhibit 50% of kinase activity (IC^50). Compounds were dissolved at 10 mM in dimethyl sulfoxide (DMSO) and evaluated at ten concentrations, each in duplicate. The final concentration of DMSO in the assay is 1.7%. IC50 values were derived by non-linear regression.

Experiment [2] deals with Casein Kinase 2 A1 kinase (Homo sapiens, UniProt P68400). As to the kind of experiment: CK2A1 kinase assay (33P, TCA precipitation). Type of experiment: biochemical. The protocol: as §1, with “2 A1” for “2 A2”, “contain Casecin” for “contain Casein”, “ATP, ATP-γ-^33 P” for “ATP, ATP-γ^33P”, “containing Mg^2+,” for “containing Mg^++,”, “activity (IC50).” for “activity (IC^50).”
Casein Kinase 2 A1 kinase, sequence (P68400 whole entry): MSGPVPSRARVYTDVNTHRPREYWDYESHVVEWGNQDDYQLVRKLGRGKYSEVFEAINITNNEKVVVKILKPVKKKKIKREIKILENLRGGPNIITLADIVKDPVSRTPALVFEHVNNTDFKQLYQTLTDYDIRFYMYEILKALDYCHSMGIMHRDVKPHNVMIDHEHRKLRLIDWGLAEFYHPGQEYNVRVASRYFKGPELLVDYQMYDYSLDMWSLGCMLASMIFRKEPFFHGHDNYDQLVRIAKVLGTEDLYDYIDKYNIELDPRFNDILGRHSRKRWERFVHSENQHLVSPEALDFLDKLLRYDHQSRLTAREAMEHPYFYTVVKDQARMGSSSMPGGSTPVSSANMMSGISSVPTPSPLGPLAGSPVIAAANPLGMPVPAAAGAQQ

Casein Kinase 2 A2 kinase, sequence (P19784 whole entry): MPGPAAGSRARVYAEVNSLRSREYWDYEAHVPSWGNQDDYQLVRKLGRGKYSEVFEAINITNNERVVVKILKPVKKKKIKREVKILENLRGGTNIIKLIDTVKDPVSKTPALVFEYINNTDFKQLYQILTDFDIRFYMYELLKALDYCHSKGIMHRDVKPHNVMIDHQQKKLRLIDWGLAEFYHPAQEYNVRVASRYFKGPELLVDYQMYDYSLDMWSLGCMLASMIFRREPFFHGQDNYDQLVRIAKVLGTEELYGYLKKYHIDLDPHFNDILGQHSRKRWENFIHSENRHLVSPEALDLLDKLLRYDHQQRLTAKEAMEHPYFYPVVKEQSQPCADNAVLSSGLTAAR

`Cc1cc(Nc2nc(N3CCCC(c4ccccc4)C3)nn3cccc23)[nH]n1` (stereo not drawn) [Example 204, N-(3-methyl-1H-pyrazol-5-yl)-2-(3-phenylpiperidin-1-yl)pyrrolo[1,2-f][1,2,4]triazin-4-amine]: the results for the IC50 in experiment [1] and in experiment [2] were 228 nM and 1860 nM, respectively.
Turning to `CCc1cc(Nc2nc(N3CCC(c4ccccc4F)C3)nn3cccc23)[nH]n1` (stereo not drawn) [Example 171, N-(3-Ethyl-1H-pyrazol-5-yl)-2-(3-(2-fluorophenyl)pyrrolidin-1-yl)pyrrolo[1,2-f][1,2,4]triazin-4-amine], the figures for the IC50 in experiment [1] and in experiment [2] were 11 nM and 154 nM, respectively.
Take `c1ccc([C@H]2C[C@@H]2c2cc(Nc3nc(N4CCC(c5cccnc5)C4)nn4cccc34)[nH]n2)cc1` (stereo partly drawn) [Example 197, N-(3-((1S,2S)-2-phenylcyclopropyl)-1H-pyrazol-5-yl)-2-(3-(pyridin-3-yl)pyrrolidin-1-yl)pyrrolo[1,2-f][1,2,4]triazin-4-amine]: the IC50 in experiment [1] stood at 1020 nM; in experiment [2], 11300 nM.
Take “2-(3-(2-methoxyphenyl)pyrrolidin-1-yl)-N-(3-methyl-1H-pyrazol-5-yl)pylTolo[1,2-f][1,2,4]triazin-4-amine [Example 176]”: the figures for the IC50 in experiment [1] and in experiment [2] were 89 nM and 872 nM, respectively.
For `Cc1cc(Nc2nc(N3CCC(CC(=O)O)C3)nn3cccc23)[nH]n1` (stereo not drawn) [Example 199, 2-(1-(4-(3-methyl-1H-pyrazol-5-ylamino)pyrrolo[1,2-f][1,2,4]triazin-2-yl)pyrrolidin-3-yl)acetic acid] the same measures were 379 nM and 2350 nM.
For `Cc1cc(Nc2nc(N3CCC(c4ccncc4)CC3)nn3cccc23)[nH]n1` [Example 203, N-(3-methyl-1H-pyrazol-5-yl)-2-(4-(pyridin-4-yl)piperidin-1-yl)pyrrolo[1,2-f][1,2,4]triazin-4-amine], the IC50 in experiment [1] stood at 56 nM; in experiment [2], 243 nM.
Regarding `CC1C[C@@H]1c1cc(Nc2nc(N3CCC(c4cccnc4)C3)nn3cccc23)[nH]n1` (stereo partly drawn) [Example 182, N-(3-((1S,2S)-2-methylcyclopropyl)-1H-pyrazol-5-yl)-2-(3-(pyridin-3-yl)pyrrolidin-1-yl)pyrrolo[1,2-f][1,2,4]triazin-4-amine], the results for the half-maximal inhibitory concentration (IC50) in experiment [1] and in experiment [2] were 13 nM and 131 nM, respectively.
Take `COc1ncccc1C1CCN(c2nc(Nc3cc(C)n[nH]3)c3cccn3n2)C1` (stereo not drawn) [Example 213, 2-(3-(2-methoxypyridin-3-yl)pyrrolidin-1-yl)-N-(3-methyl-1H-pyrazol-5-yl)pyrrolo[1,2-f][1,2,4]triazin-4-amine]: the results for the 50% inhibitory concentration (IC50) in experiment [1] and in experiment [2] were 43 nM and 349 nM, respectively.
For `COc1ccc(C2CCN(c3nc(Nc4cc(C)n[nH]4)c4cccn4n3)C2)cn1` (stereo not drawn) [Example 212, (3-(6-Methoxypyridin-3-yl)pyrrolidin-1-yl)-N-(3-methyl-1H-pyrazol-5-yl)pyrrolo[1,2-f][1,2,4]triazin-4-amine] the same measures were 99 nM and 1380 nM.
For the compound `c1ccc(-c2cc(Nc3nc(N4CCC(c5cccnc5)C4)nn4cccc34)[nH]n2)cc1` (stereo not drawn) [Example 174, N-(3-phenyl-1H-pyrazol-5-yl)-2-(3-(pyridin-3-yl)pyrrolidin-1-yl)pyrrolo[1,2f][1,2,4]triazin-4-amine], the results for the IC50 in experiment [1] and in experiment [2] were 91 nM and 670 nM, respectively.
As to `Cc1cc(Nc2nc(N3Cc4ccccc4C3)nn3cccc23)[nH]n1` [Example 201, 2-(isoindolin-2-yl)-N-(3-methyl-1,2-f][1,2,4]triazin-4-amine], the concentration for half-maximal inhibition (IC50) amounted to 25 nM in experiment [1] and 159 nM in experiment [2].
Take `Cc1cc(Nc2nc(N3CCCC3c3cccnc3)nn3cccc23)[nH]n1` (stereo not drawn) [Example 209, N-(3-methyl-1H-pyrazol-5-yl)-2-(2-(pyridin-3-yl)pyrrolidin-1-yl)pyrrolo[1,2-f][1,2,4]triazin-4-amine]: the figures for the IC50 in experiment [1] and in experiment [2] were 1100 nM and 6070 nM, respectively.
